The results in this text go back to patent publication US20060121083A1 (priority 2003, published 2006).

Values after ≈ are worked out from the molar mass of the structure shown. Read-outs that look alike come from different tables or passages of the source. Square brackets hold non-standard residues; d marks the D form. Peptide text beside a SMILES is read from it. * marks the point of attachment. Lauroyl = CCCCCCCCCCCC(=O)*; 12Ado = NCCCCCCCCCCCC(=O)O; Decanoyl = CCCCCCCCCC(=O)*; Octanoyl = CCCCCCCC(=O)*; Hexanoyl = CCCCCC(=O)*; Butyryl = CCCC(=O)*

The subject of one experiment is S. aureus. The experiment in a line: MIC assayed against S. aureus (Table 1). It counts as cell-based.
Another experiment relates to RNAIII synthesis. Briefly: RNAIII synthesis (beta-lactamase reporter, nitrocefin). The experiment is classed as cell-based, S. aureus. How it is done:
(§1) RNAIII synthesis and bacterial growth: Cultures of S. aureus (20 million cells in a volume of 30 microliters) containing an expression construct for expression of the fusion protein maiii::blaZ (described in Gov, Y. et al., 2001. Peptides. 22: 1609-20 were grown for 2.5 hours with 5 microliters peptide solution or control buffer. A 5 microliter sample was taken from the cultures, diluted in saline, and streaked on LB agar plates to quantitate CFUs. The remainder of the cultures were used to determine RNAIII synthesis (beta-lactamase activity). This was performed by adding a substrate of beta-lactamase (nitrocefin), and determining OD 490 nm/OD 650 nm, as previously described (Gov, Y. et al., 2001. Peptides. 22: 1609-20).

The test system of another experiment is S. aureus cells. The experiment in a line: Bacterial growth (CFU) of S. aureus culture grown with peptides. As to conditions: in-vitro culture grown 2.5 hours with peptide, FIG. 5a. The experiment is classed as cell-based. The method, then: as §1
In experiment [1] the test system is methicillin-resistant S. epidermidis (MRSE). It counts as in vivo. As to conditions: rats, MRSE challenge, explanted at 7 days. The text has this:
(§2) Animals: Adult male Wistar rats, 250-300 gr (I.N.R.C.A. I.R.R.C.S. animal facility, Ancona) were used, with 15 animals per experimental group.
(§3) Mammalian graft infection model: Rats were anesthetized and their hair of the back was shaved and the skin cleansed with 10 percent povidone-iodine solution. One subcutaneous pocket was made on each side of the median line by a 1.5 cm incision. Aseptically, 1 square centimeter sterile albumin-sealed Dacron™ grafts (Albograft™, Sorin Biomedica Cardio, S.p.A., Saluggia VC, Italy) were implanted into the pockets. Prior to implantation grafts were soaked for 20 minutes in sterile antibiotic solutions. The pockets were closed by means of skin clips and saline solution (1 mL) containing methicillin-resistant S. aureus (MRSA) or S. epidermidis (MRSE) at a concentration of 2×10^7 colony-forming units (CFU)/mL was inoculated onto the graft surface by using a tuberculin syringe to create a subcutaneous fluid-filled pocket. The animals were returned to individual cages and thoroughly examined daily. All grafts were explanted at 7 days following implantation.
(§4) Assessment of the infection: The explanted grafts were placed in sterile tubes, washed in sterile saline solution, placed in tubes containing 10 mL of phosphate-buffered saline solution and sonicated for 5 minutes to remove the adherent bacteria from the grafts (Balaban, N. et al, 2003. Kidney Int. 63: 340-345). Quantitation of viable staphylococci was performed by culturing serial dilutions (0.1 mL) of the bacterial suspensions on blood agar plates at 37 degrees centigrade for 48 hours. The organisms were quantitated by counting the number of colony-forming units (CFUs) per plate. The limit of detection for this method was approximately 10 CFU/mL.
(§5) Statistical analysis: MIC values are presented as the geometric mean of three separate experiments. […] Significance was accepted when the P value was less than/equal to 0.05.

Experiment [2] relates to methicillin-resistant S. aureus (MRSA). It counts as in vivo. The note with it: rats, MRSA challenge, explanted at 7 days.
From the text: as §2, §3, §4, §5

The mark [3] stands for this setting: graft presoaked in 10 micrograms/mL peptide.
Where [4] appears, read: graft presoaked in 20 micrograms/mL peptide.
The mark [5] stands for this setting: graft presoaked in 50 micrograms/mL peptide.

In the case of `CCCC(=O)N[C@@H](C)C(=O)N[C@@H](CC(C)C)C(=O)N[C@@H](Cc1c[nH]c2ccccc12)C(=O)N[C@@H](CCCCN)C(=O)N[C@H](C(=O)N[C@@H](CC(C)C)C(=O)N[C@@H](CC(C)C)C(=O)N[C@@H](CCCCN)C(=O)N[C@@H](CCCCN)C(=O)N[C@H](C(=O)N[C@@H](CC(C)C)C(=O)N[C@@H](CCCCN)C(=O)N[C@@H](C)C(N)=O)C(C)C)[C@@H](C)O` [SEQ ID NO: 1, C4—, —CONH2] (Butyryl-ALWKTLLKKVLKA-NH2), the “MIC (minimal inhibitory concentration)” value against S. aureus is 12 µM (≈ 19 µg/mL). The same measure, in the same setting: to `CCCCCCCCCCCC(=O)N[C@H](C(=O)N[C@@H](CC(C)C)C(=O)N[C@@H](CC(C)C)C(=O)N[C@@H](CCCCN)C(=O)N[C@@H](CCCCN)C(=O)N[C@H](C(=O)N[C@@H](CC(C)C)C(=O)N[C@@H](CCCCN)C(=O)N[C@@H](C)C(N)=O)C(C)C)[C@@H](C)O` [SEQ ID NO: 5, C12, —CONH2] (Lauroyl-TLLKKVLKA-NH2) belongs 1.5 ± 0.75 µM (≈ 1.79 µg/mL). For `CC(C)C[C@H](NC(=O)[C@H](C)N)C(=O)N[C@@H](Cc1c[nH]c2ccccc12)C(=O)N[C@@H](CCCCN)C(=O)N[C@H](C(=O)N[C@@H](CC(C)C)C(=O)N[C@@H](CC(C)C)C(=O)N[C@@H](CCCCN)C(=O)N[C@@H](CCCCN)C(=O)N[C@H](C(=O)N[C@@H](CC(C)C)C(=O)N[C@@H](CCCCN)C(=O)N[C@@H](C)C(N)=O)C(C)C)[C@@H](C)O` [DD13] (H-ALWKTLLKKVLKA-NH2; N-terminus assumed), in the experiment with RNAIII synthesis (FIG. 5b, at high peptide concentrations mostly attributable to cell death), the “Inhibition of RNAIII synthesis” value is listed as “more efficient than RIP”. In addition, the “Effect on RNAIII synthesis at low peptide concentrations” value in the experiment with RNAIII synthesis (low peptide concentrations where no cell death occurred (inset FIG. 5b)) was “unable to affect RNAIII synthesis”. Besides, the “Bactericidal activity (CFU counts)” value with S. aureus cells is given as “potent bactericidal activity”. Besides, the “MIC (minimal inhibitory concentration)” value with S. aureus is 9 ± 3 µM (≈ 13.6 µg/mL). In addition, the “Graft bacterial load (quantitative culture)” value in experiment [1] (setting [3]) is given as 5.2×10^2±1.6×10^2 CFU/ml; in experiment [1] (setting [4]) it was 4.4×10^1±1.3×10^1 CFU/ml; in experiment [1] (setting [5]), “negative quantitative cultures”; in experiment [2] (setting [3]) it was 5.2×10^2±1.6×10^2 CFU/ml; in experiment [2] (setting [4]), 4.0×10^1±1.7×10^1 CFU/ml; in experiment [2] (setting [5]), “negative quantitative cultures”. For `CCCCCCCCCCCC(=O)N[C@@H](C)C(=O)N[C@@H](CC(C)C)C(=O)N[C@@H](Cc1c[nH]c2ccccc12)C(=O)N[C@@H](CCCCN)C(=O)N[C@H](C(=O)N[C@@H](CC(C)C)C(=O)N[C@@H](CC(C)C)C(=O)N[C@@H](CCCCN)C(=O)N[C@@H](CCCCN)C(=O)N[C@H](C(=O)N[C@@H](CC(C)C)C(=O)N[C@@H](CCCCN)C(=O)N[C@@H](C)C(N)=O)C(C)C)[C@@H](C)O` [SEQ ID NO: 1, C12—, —CONH2] (Lauroyl-ALWKTLLKKVLKA-NH2), the “MIC (minimal inhibitory concentration)” value against S. aureus came to 4.5 ± 1.5 µM (≈ 7.62 µg/mL).

`CCCCCC(=O)N[C@@H](C)C(=O)N[C@@H](CC(C)C)C(=O)N[C@@H](Cc1c[nH]c2ccccc12)C(=O)N[C@@H](CCCCN)C(=O)N[C@H](C(=O)N[C@@H](CC(C)C)C(=O)N[C@@H](CC(C)C)C(=O)N[C@@H](CCCCN)C(=O)N[C@@H](CCCCN)C(=O)N[C@H](C(=O)N[C@@H](CC(C)C)C(=O)N[C@@H](CCCCN)C(=O)N[C@@H](C)C(N)=O)C(C)C)[C@@H](C)O` [SEQ ID NO: 1, C6—, —CONH2] (Hexanoyl-ALWKTLLKKVLKA-NH2): the “MIC (minimal inhibitory concentration)” value in the experiment with S. aureus came to 2.2 ± 0.8 µM (≈ 3.54 µg/mL). Take `CC(=O)N[C@@H](C)C(=O)N[C@@H](CC(C)C)C(=O)N[C@@H](Cc1c[nH]c2ccccc12)C(=O)N[C@@H](CCCCN)C(=O)N[C@H](C(=O)N[C@@H](CC(C)C)C(=O)N[C@@H](CC(C)C)C(=O)N[C@@H](CCCCN)C(=O)N[C@@H](CCCCN)C(=O)N[C@H](C(=O)N[C@@H](CC(C)C)C(=O)N[C@@H](CCCCN)C(=O)N[C@@H](C)C(N)=O)C(C)C)[C@@H](C)O` [SEQ ID NO: 1, C2—, —CONH2] (Ac-ALWKTLLKKVLKA-NH2): the “MIC (minimal inhibitory concentration)” value with S. aureus was 25 µM (≈ 38.8 µg/mL). Still for that read-out and setting: to `CC(C)C[C@H](NC(=O)[C@H](Cc1c[nH]c2ccccc12)NC(=O)[C@H](CCCCN)NC(=O)[C@@H](NC(=O)[C@H](CC(C)C)NC(=O)[C@H](CC(C)C)NC(=O)[C@H](CCCCN)NC(=O)[C@H](CCCCN)NC(=O)[C@@H](NC(=O)[C@H](CC(C)C)NC(=O)[C@H](CCCCN)NC(=O)[C@H](C)NC(=O)CCCCCCCCCCCN)C(C)C)[C@@H](C)O)C(=O)N[C@@H](C)C(N)=O` [SEQ ID NO: 2, NC12—, —CONH2] belongs 1.5 µM (≈ 2.56 µg/mL). The same measure, in the same setting: as for `CCCCCCCCCC(=O)N[C@@H](C)C(=O)N[C@@H](CC(C)C)C(=O)N[C@@H](Cc1c[nH]c2ccccc12)C(=O)N[C@@H](CCCCN)C(=O)N[C@H](C(=O)N[C@@H](CC(C)C)C(=O)N[C@@H](CC(C)C)C(=O)N[C@@H](CCCCN)C(=O)N[C@@H](CCCCN)C(=O)N[C@H](C(=O)N[C@@H](CC(C)C)C(=O)N[C@@H](CCCCN)C(=O)N[C@@H](C)C(N)=O)C(C)C)[C@@H](C)O` [SEQ ID NO: 1, C10—, —CONH2] (Decanoyl-ALWKTLLKKVLKA-NH2), the figure is 1.5 µM (≈ 2.5 µg/mL); as for `CCCCCCCC(=O)N[C@@H](C)C(=O)N[C@@H](CC(C)C)C(=O)N[C@@H](Cc1c[nH]c2ccccc12)C(=O)N[C@@H](CCCCN)C(=O)N[C@H](C(=O)N[C@@H](CC(C)C)C(=O)N[C@@H](CC(C)C)C(=O)N[C@@H](CCCCN)C(=O)N[C@@H](CCCCN)C(=O)N[C@H](C(=O)N[C@@H](CC(C)C)C(=O)N[C@@H](CCCCN)C(=O)N[C@@H](C)C(N)=O)C(C)C)[C@@H](C)O` [SEQ ID NO: 1, C8—, —CONH2] (Octanoyl-ALWKTLLKKVLKA-NH2), 1.5 µM (≈ 2.46 µg/mL).

In the case of `CCCCCCCCCCCC(=O)N[C@@H](C)C(=O)N[C@@H](CC(C)C)C(=O)N[C@@H](Cc1c[nH]c2ccccc12)C(=O)N[C@@H](CCCCN)C(=O)N[C@H](C(=O)N[C@@H](CC(C)C)C(=O)N[C@@H](CC(C)C)C(=O)N[C@@H](CCCCN)C(=O)N[C@@H](CCCCN)C(=O)N[C@H](C(N)=O)C(C)C)[C@@H](C)O` [SEQ ID NO: 4, C12, —CONH2] (Lauroyl-ALWKTLLKKV-NH2), the “MIC (minimal inhibitory concentration)” value against S. aureus was 3 µM (≈ 4.14 µg/mL).

In the case of `CC(C)C[C@H](NC(=O)[C@H](C)NC(=O)CCCCCCCCCCCN)C(=O)N[C@@H](Cc1c[nH]c2ccccc12)C(=O)N[C@@H](CCCCN)C(=O)N[C@H](C(=O)N[C@@H](CC(C)C)C(=O)N[C@@H](CC(C)C)C(=O)N[C@@H](CCCCN)C(=O)N[C@@H](CCCCN)C(=O)N[C@H](C(=O)N[C@@H](CC(C)C)C(=O)N[C@@H](CCCCN)C(=O)N[C@@H](C)C(N)=O)C(C)C)[C@@H](C)O` [SEQ ID NO: 1, NC12—, —CONH2] (H-[12Ado]ALWKTLLKKVLKA-NH2), the “MIC (minimal inhibitory concentration)” value in the experiment with S. aureus was determined as 0.75 µM (≈ 1.28 µg/mL). Still for that read-out and setting: as for `CC(C)C[C@H](NC(=O)[C@H](C)NC(=O)[C@H](CCCCN)NC(=O)CCCCCCCCCCCN)C(=O)N[C@@H](Cc1c[nH]c2ccccc12)C(=O)N[C@@H](CCCCN)C(=O)N[C@H](C(=O)N[C@@H](CC(C)C)C(=O)N[C@@H](CC(C)C)C(=O)N[C@@H](CCCCN)C(=O)N[C@@H](CCCCN)C(=O)N[C@H](C(=O)N[C@@H](CC(C)C)C(=O)N[C@@H](CCCCN)C(=O)N[C@@H](C)C(N)=O)C(C)C)[C@@H](C)O` [SEQ ID NO: 3, NC12—, —CONH2], the figure is 1.5 µM (≈ 2.75 µg/mL).
